≈ marks a conversion by molar mass, not a printed value. Entries after “also recorded” stand apart in the source; their conditions may differ. Where two headings read alike, the source gives them in different places.
Key:
[1] = test system: E. faecalis (ATCC 29212); assay: Minimum inhibitory concentration (MIC); assay type: cell-based, Enterococcus faecalis
Experimental: (§1) The test strains were inoculated on the corresponding solid medium and incubated overnight at 37°C. A single colony was picked from the medium and inoculated into Luria Broth (LB), and then incubated overnight at 37°C with shaking at 220 rpm. The bacterial suspension was diluted to 0.5 McFarland turbidity with Mueller Hinton broth (MHB), and then dilute 100 times for later use. Halicin was added to the 96-well plate, and diluted it to concentrations of 128, 64, 32, 16, 8, 4, 2, 1, 0.5, 0.25, 0.125, and 0 μg/mL by gradient. The 96-well plate was incubated at 37°C for 16 h, followed by observing and recording the results. The MIC was determined as the concentration at which there was no visible colony growth was observed.

[2] = test system: other bacteria (except Bacillus subtilis and Pseudomonas aeruginosa); assay: MIC, panel of Table 1 as summarised in the text; assay type: cell-based; settings: bacteria of Table 1 except Bacillus subtilis and Pseudomonas aeruginosa
[3] = test system: WP2uvApKM101; assay: Ames test; assay type: cell-based, Escherichia coli
Experimental: (§2) The experiments were performed in triplicate.

[4] = test system: MRSA (BNCC 337371); assay: Minimum inhibitory concentration (MIC); assay type: cell-based, Staphylococcus aureus
[5] = Pharmacokinetics of halicin in rat (oral)
[6] = test system: C. perfringens (ATCC 13124); assay type: cell-based, Clostridium perfringens
[7] = test system: Proteus (CMCC (B) 49027); assay: Growth kinetics curve; assay type: cell-based; settings: 1/2 × to 4 × MIC
[8] = test system: S. aureus (ATCC 29213); assay: Multipassage resistance study (continuous induction); settings: after 90 days of continuous exposure to 0.5 × MIC
[9] = test system: K. pneumoniae (ATCC 4352); assay: Minimum inhibitory concentration (MIC); assay type: cell-based, Klebsiella pneumoniae
Experimental: as §1

[10] = test system: Salmonella (CVCC 3377); assay: Minimum inhibitory concentration (MIC); assay type: cell-based
[11] = test system: S. aureus (ATCC 29213); assay: Minimum inhibitory concentration (MIC); assay type: cell-based, Staphylococcus aureus
Experimental: as §1

[12] = test system: clinical isolates of C. perfringens strains; assay type: cell-based, Clostridium perfringens
[13] = test system: Mouse spermatozoa; settings: for Abnormal ratio (%) / Number of sperm abnormality: male ICR mice, oral; for Number of sperm abnormality: of 5 × 1,000 sperms observed
[14] = test system: S. aureus (ATCC 29213); assay: Growth kinetics curve; assay type: cell-based, Staphylococcus aureus
[15] = test system: S. pneumoniae (ATCC 49619); assay: Minimum inhibitory concentration (MIC); assay type: cell-based, Streptococcus pneumoniae
Experimental: as §1

[16] = test system: zebrafish embryos; assay: Zebrafish embryonic malformation study; assay type: in vivo; settings: up to 4 μM; 24, 48 and 72 h after fertilization
Experimental: For embryonic malformation studies, groups of 20 zebrafish embryos each were treated with halicin. The concentrations of the drug were set at 4, 2, 1, and 0.5 μM, in accordance with established protocols for zebrafish embryo acute toxicity test. Observations were conducted at 24, 48, and 72 h after fertilization using a microscope. The embryonic assessment focused on six specific teratogenic endpoints: pericardial edema, yolk sac edema, cardiac malformations, morphological body shape deformities, tail deformities, and craniofacial anomalies, as well as otolith abnormalities. To minimize the impact of random variability, these experiments were performed in triplicate ([OECD, 1998]).

[17] = test system: TA98; assay: Ames test; assay type: cell-based, Salmonella typhimurium
Experimental: as §2

Nc1nnc(Sc2ncc([N+](=O)[O-])s2)s1 [halicin]
MIC [1]: 4 mg/L (≈ 15.3 µM)
MIC against other bacteria [2]: less than 8 μg/mL
Ames test bacterial counts ([3]; WP2uvApKM101, +S9, 5.6 μg/plate): 183 ± 15.6
Ames test bacterial counts ([3]; WP2uvApKM101, +S9, 11.2 μg/plate): 168 ± 19.8
Ames test bacterial counts ([3]; WP2uvApKM101, +S9, 22.5 μg/plate): 12 ± 5.7
Ames test bacterial counts ([3]; WP2uvApKM101, +S9, 45 μg/plate): 0 ± 0
Ames test bacterial counts ([3]; WP2uvApKM101, -S9, 5.6 μg/plate): 169 ± 15.6
Ames test bacterial counts ([3]; WP2uvApKM101, -S9, 11.2 μg/plate): 135 ± 22.6
Ames test bacterial counts ([3]; WP2uvApKM101, -S9, 22.5 μg/plate): 75 ± 8.5
Ames test bacterial counts ([3]; WP2uvApKM101, -S9, 45 μg/plate): 0 ± 0
MIC [4]: 8 mg/L (≈ 30.6 µM)
AUC0-last ([5]; High dose (50 mg/kg)): 0.45958 ± 0.03453 µg·h/mL
AUC0-∞ ([5]; High dose (50 mg/kg)): 0.51086 ± 0.04662 µg·h/mL
Cl/F ([5]; High dose (50 mg/kg)): 58.98317 ± 7.0413 L/h/kg
Cmax ([5]; High dose (50 mg/kg)): 0.06425 ± 0.00198 µg/mL
MRTlast ([5]; High dose (50 mg/kg)): 5.85 ± 0.13 h
T1/2λz ([5]; High dose (50 mg/kg)): 8.57 ± 0.22 h
Tmax ([5]; High dose (50 mg/kg)): 1.33 ± 1.41 h
Vd/F ([5]; High dose (50 mg/kg)): 828.26908 ± 70.84029 L/kg
λz ([5]; High dose (50 mg/kg)): 0.085 ± 0.0016 h⁻¹
AUC0-last ([5]; Low dose (10 mg/kg)): 0.31805 ± 0.03127 µg·h/mL
AUC0-∞ ([5]; Low dose (10 mg/kg)): 0.39588 ± 0.04241 µg·h/mL
Cl/F ([5]; Low dose (10 mg/kg)): 25.3604 ± 2.66185 L/h/kg
Cmax ([5]; Low dose (10 mg/kg)): 0.04099 ± 0.00237 µg/mL
MRTlast ([5]; Low dose (10 mg/kg)): 7.58 ± 0.41 h
T1/2λz ([5]; Low dose (10 mg/kg)): 10.32 ± 2.22 h
Tmax ([5]; Low dose (10 mg/kg)): 1.33 ± 1.41 h
Vd/F ([5]; Low dose (10 mg/kg)): 375.07455 ± 41.94437 L/kg
λz ([5]; Low dose (10 mg/kg)): 0.068 ± 0.016 h⁻¹
drug concentration in the blood ([5]; at 24 h after drug administration): ≤ 0.005 µg/mL
absorption and elimination in vivo ([5]; drug metabolism experiments): poorly absorbed and quickly eliminated
MIC [6]: 8 mg/L (≈ 30.6 µM)
growth in growth kinetics curve assay [7]: completely inhibited
MIC of SAR (S. aureus ATCC 29213 resistant strains) [8]: 64 mg/L
MIC [9]: 8 mg/L (≈ 30.6 µM)
MIC [10]: 8 mg/L (≈ 30.6 µM)
MIC [11]: 8 mg/L (≈ 30.6 µM)
MIC ([12]; clinical isolate S049, Clostridium perfringens Cp001): 4 mg/L (≈ 15.3 µM)
MIC ([12]; clinical isolate S050, Clostridium perfringens Cp002): 4 mg/L (≈ 15.3 µM)
MIC ([12]; clinical isolate S051, Clostridium perfringens Cp003): 4 mg/L (≈ 15.3 µM)
MIC ([12]; clinical isolate S052, Clostridium perfringens Cp004): 8 mg/L (≈ 30.6 µM)
MIC ([12]; clinical isolate S053, Clostridium perfringens Cp005): 8 mg/L (≈ 30.6 µM)
MIC ([12]; clinical isolate S054, Clostridium perfringens Cp006): 8 mg/L (≈ 30.6 µM)
MIC ([12]; clinical isolate S055, Clostridium perfringens Cp007): 16 mg/L (≈ 61.2 µM)
MIC ([12]; clinical isolate S056, Clostridium perfringens Cp008): 0.25 mg/L (≈ 0.957 µM)
MIC ([12]; clinical isolate S057, Clostridium perfringens Cp009): 0.25 mg/L (≈ 0.957 µM)
MIC ([12]; clinical isolate S058, Clostridium perfringens Cp010): 0.25 mg/L (≈ 0.957 µM)
proportions of abnormal sperm compared with the negative control group ([13]; 1009.1, 504.6 and 252.3 mg/kg, p > 0.05): not significantly different
Abnormal sperms counted ratio (%): Amorphous ([13]; High-dose (1009.1) mg/kg): 23.6 ± 12.44%
Abnormal sperms counted ratio (%): Banana shape ([13]; High-dose (1009.1) mg/kg): 42.52 ± 12.57%
Abnormal sperms counted ratio (%): Kinks tail ([13]; High-dose (1009.1) mg/kg): 3.05 ± 2.79%
Abnormal sperms counted ratio (%): Large round head ([13]; High-dose (1009.1) mg/kg): 9.07 ± 4.02%
Abnormal sperms counted ratio (%): No hook ([13]; High-dose (1009.1) mg/kg): 15.6 ± 5.5%
Abnormal sperms counted ratio (%): Two head ([13]; High-dose (1009.1) mg/kg): 3.05 ± 2.79%
Abnormal sperms counted ratio (%): Two tail ([13]; High-dose (1009.1) mg/kg): 3.11 ± 2.84%
Abnormal sperms counted ratio (%): Amorphous ([13]; Low-dose (252.3) mg/kg): 39.81 ± 3%
Abnormal sperms counted ratio (%): Banana shape ([13]; Low-dose (252.3) mg/kg): 35.98 ± 3.94%
Abnormal sperms counted ratio (%): Kinks tail ([13]; Low-dose (252.3) mg/kg): 1.18 ± 2.63%
Abnormal sperms counted ratio (%): Large round head ([13]; Low-dose (252.3) mg/kg): 3.92 ± 3.58%
Abnormal sperms counted ratio (%): No hook ([13]; Low-dose (252.3) mg/kg): 16.61 ± 3.11%
Abnormal sperms counted ratio (%): Two head ([13]; Low-dose (252.3) mg/kg): 1.33 ± 2.98%
Abnormal sperms counted ratio (%): Two tail ([13]; Low-dose (252.3) mg/kg): 1.18 ± 2.63%
Abnormal sperms counted ratio (%): Amorphous ([13]; Medium-dose (504.6) mg/kg): 29.69 ± 2.67%
Abnormal sperms counted ratio (%): Banana shape ([13]; Medium-dose (504.6) mg/kg): 35.81 ± 4.52%
Abnormal sperms counted ratio (%): Kinks tail ([13]; Medium-dose (504.6) mg/kg): 2.44 ± 3.37%
Abnormal sperms counted ratio (%): Large round head ([13]; Medium-dose (504.6) mg/kg): 11.96 ± 0.96%
Abnormal sperms counted ratio (%): No hook ([13]; Medium-dose (504.6) mg/kg): 16.7 ± 2.71%
Abnormal sperms counted ratio (%): Two head ([13]; Medium-dose (504.6) mg/kg): 2.22 ± 3.04%
Abnormal sperms counted ratio (%): Two tail ([13]; Medium-dose (504.6) mg/kg): 1.18 ± 2.63%
Abnormal ratio (%) ([13]; High-dose (1009.1) mg/kg): 2.12 ± 0.38%
Number of sperm abnormality ([13]; High-dose (1009.1) mg/kg): 110
Abnormal ratio (%) ([13]; Low-dose (252.3) mg/kg): 1.56 ± 0.09%
Number of sperm abnormality ([13]; Low-dose (252.3) mg/kg): 78
Abnormal ratio (%) ([13]; Medium-dose (504.6) mg/kg): 1.68 ± 0.13%
Number of sperm abnormality ([13]; Medium-dose (504.6) mg/kg): 84
growth in growth kinetics curve assay ([14]; 1 × MIC): started to grow rapidly after 16 h
growth in growth kinetics curve assay ([14]; 4 × MIC, after 20 h): still proliferated significantly
type of antibacterial action ([14]; against S. aureus): bacteriostatic rather than a bactericidal agent
MIC [15]: 0.5 mg/L (≈ 1.91 µM)
teratogenic effects on the embryos [16]: no significant teratogenicity; also recorded: no any significant teratogenic effects
Ames test bacterial counts ([17]; TA98, +S9, 5.6 μg/plate): 30 ± 12.7
Ames test bacterial counts ([17]; TA98, +S9, 11.2 μg/plate): 43 ± 8.5
Ames test bacterial counts ([17]; TA98, +S9, 22.5 μg/plate): 53 ± 7.1
Ames test bacterial counts ([17]; TA98, +S9, 45 μg/plate): 0 ± 0
Ames test bacterial counts ([17]; TA98, -S9, 5.6 μg/plate): 27 ± 2.8
Ames test bacterial counts ([17]; TA98, -S9, 11.2 μg/plate): 61 ± 14.1
Ames test bacterial counts ([17]; TA98, -S9, 22.5 μg/plate): 55 ± 5.7
Ames test bacterial counts ([17]; TA98, -S9, 45 μg/plate): 0 ± 0

Reference: PMC11111955, “Safety and efficacy evaluation of halicin as an effective drug for inhibiting intestinal infections” (Frontiers in Pharmacology, 2024)
